In US20250262201A1, “COMPOUNDS AND METHODS USEFUL FOR STABILIZING PHENYLALANINE HYDROXYLASE MUTATIONS” (Agios Pharmaceuticals, Inc., priority 2022, published 2025):

target: T1, human PAH with the R408W mutation (Homo sapiens, UniProt P00439, R408W); test: Cell Based Phenylalanine Flux Assay; design: scale not given here; conditions: A375 R408W cells, 24 hrs with compound, then 20 μM sepiapterin and 800 μM 13C9,15N-Phenylalanine for 4 hours; 13C-Tyrosine by LC-MS; average where tested multiple times
T1 construct: expressed in transfected cells
T1 sequence (P00439 1-452 R408W): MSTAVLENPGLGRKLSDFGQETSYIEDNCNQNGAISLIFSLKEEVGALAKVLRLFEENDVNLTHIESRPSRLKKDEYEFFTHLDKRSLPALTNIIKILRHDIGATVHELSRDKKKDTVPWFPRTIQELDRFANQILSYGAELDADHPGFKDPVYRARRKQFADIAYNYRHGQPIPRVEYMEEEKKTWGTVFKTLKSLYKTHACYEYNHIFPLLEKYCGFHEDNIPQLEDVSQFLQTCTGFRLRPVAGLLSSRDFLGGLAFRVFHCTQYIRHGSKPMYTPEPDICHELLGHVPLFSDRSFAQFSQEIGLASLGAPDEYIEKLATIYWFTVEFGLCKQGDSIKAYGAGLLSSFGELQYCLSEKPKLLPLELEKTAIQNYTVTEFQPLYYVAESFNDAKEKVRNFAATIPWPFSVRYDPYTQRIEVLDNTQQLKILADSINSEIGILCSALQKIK

Row | AC50 | SMILES
1 | E, E | Nc1nc(C(F)(F)F)c(C(=O)N2CCc3[nH]cnc3C2c2cn3ccccc3n2)o1 (stereo not drawn)
2 | E, E | Cn1cc(-c2nc(C(F)(F)F)c(C(=O)N3CCc4[nH]cnc4C3c3ncc4ccccc4n3)o2)cn1 (stereo not drawn)

same assay, conditions: A375 R408W cells, 24 hrs with compound, then 20 μM sepiapterin and 800 μM 13C9,15N-Phenylalanine for 4 hours; 13C-Tyrosine by LC-MS; average where tested multiple times; read-out: AC50

Row | AC50 [nM] | SMILES
3 | > 5000 | O=C(c1cnc(-c2ccccn2)o1)N1CCc2[nH]cnc2[C@@H]1c1cc2ccccc2nn1 (single isomer, unassigned)
4 | 1000 to 5000 | Cn1ccc(-c2nnc(C(=O)N3CCc4[nH]cnc4C3c3cc4ccccc4nn3)o2)n1 (stereo not drawn)
5 | > 5000 | O=C(C1CC1(F)F)N1CCc2[nH]cnc2C1c1cn2ccccc2n1 (stereo not drawn)
6 | 1000 to 5000 | O=C(c1cnn(-c2ccccn2)c1)N1CCc2[nH]cnc2C1c1ccc2ccccc2n1 (stereo not drawn)
7 | 1000 to 5000 | CC1CN(c2nnc(-c3ccccn3)o2)C(c2cc3ccccc3cn2)c2nc[nH]c21 (stereo not drawn)
8 | 1000 to 5000 | Cn1cc(-c2nc(C3CC3)c(C(=O)N3CCCc4[nH]cnc4C3c3cc4ccccc4cn3)o2)cn1 (stereo not drawn)
9 | 1000 to 5000 | O=C(C1CN(c2ccccn2)C1)N1CCc2[nH]cnc2C1c1ccc2ccccc2n1 (stereo not drawn)
10 | > 5000 | O=C(c1ccn[nH]1)N1CCc2[nH]cnc2C1c1ccc2ccccc2n1 (stereo not drawn)
11 | 1000 to 5000 | CN(C)c1nnc(C(=O)N2CCc3[nH]cnc3C2c2ccc3ccccc3n2)o1 (stereo not drawn)
12 | > 5000 | O=C(CCc1ccc(F)cc1)N1CCc2[nH]cnc2C1c1ccc2ccccc2c1 (stereo not drawn)

same assay, conditions: A375 cells expressing human R408W PAH; 24 hrs compound incubation; 13C-Tyrosine by LC-MS; average where tested multiple times; read-out: AC50

Row | AC50 [nM] | SMILES
13 | 500 to 1000 | O=C(c1nnc(N2CCOCC2)o1)N1CCc2[nH]cnc2[C@H]1c1cc2ccccc2cn1 [Example 433, (R)-(4-(isoquinolin-3-yl)-6,7-dihydro-1H-imidazo[4,5-c]pyridin-5(4H)-yl)(5-morpholino-1,3,4-oxadiazol-2-yl)methanone]
14 | > 5000 | Cc1nc(C(C)(C)F)oc1C(=O)N1CCc2[nH]cnc2C1c1ccc2ccccc2n1 (stereo in doubt) [Example 21, (S)-(2-(2-fluoropropan-2-yl)-4-methyloxazol-5-yl)(4-(quinolin-2-yl)-6,7-dihydro-1H-imidazo[4,5-c]pyridin-5(4H)-yl)methanone]
15 | 500 to 1000 | CC(C)(F)c1nnc(C(=O)N2CCc3[nH]cnc3C2c2ccc3ccccc3n2)o1 (stereo in doubt) [Example 105, (R)-(5-(2-fluoropropan-2-yl)-1,3,4-oxadiazol-2-yl)(4-(quinolin-2-yl)-6,7-dihydro-1H-imidazo[4,5-c]pyridin-5(4H)-yl)methanone]
16 | > 5000 | O=C(c1nnc(C2CC(F)(F)C2)o1)N1CCc2[nH]cnc2[C@@H]1c1ncc2ccccc2n1 [Example 152, (R)-(5-(3,3-difluorocyclobutyl)-1,3,4-oxadiazol-2-yl)(4-(quinazolin-2-yl)-6,7-dihydro-1H-imidazo[4,5-c]pyridin-5(4H)-yl)methanone]
17 | < 500 | O=C(c1ccn2ncccc12)N1CCc2[nH]cnc2[C@H]1c1cc2ccccc2cn1 [Example 362, (R)-(4-(isoquinolin-3-yl)-6,7-dihydro-1H-imidazo[4,5-c]pyridin-5(4H)-yl)(pyrrolo[1,2-b]pyridazin-5-yl)methanone]
18 | < 500 | O=C(c1cnn2cccc(F)c12)N1CCc2[nH]cnc2[C@H]1c1cc2ccccc2cn1 [Example 357, (R)-(4-fluoropyrazolo[1,5-a]pyridin-3-yl)(4-(isoquinolin-3-yl)-6,7-dihydro-1H-imidazo[4,5-c]pyridin-5(4H)-yl)methanone]
19 | < 500 | C[C@H](O)c1nc(C(F)F)c(C(=O)N2CCc3[nH]cnc3C2c2ccc3ccccc3n2)o1 (stereo in doubt) [Example 122, (4-(difluoromethyl)-2-((S)-1-hydroxyethyl)oxazol-5-yl)((R)-4-(quinolin-2-yl)-6,7-dihydro-1H-imidazo[4,5-c]pyridin-5(4H)-yl)methanone]
20 | 1000 to 5000 | O=C(c1nnc(-c2ccccn2)o1)N1CCc2[nH]cnc2[C@@H]1c1ncc2ccccc2n1 [Example 146, (R)-(5-(pyridin-2-yl)-1,3,4-oxadiazol-2-yl)(4-(quinazolin-2-yl)-6,7-dihydro-1H-imidazo[4,5-c]pyridin-5(4H)-yl)methanone]
21 | 1000 to 5000 | C[C@@H](O)c1nc(C(F)F)c(C(=O)N2CCc3[nH]cnc3C2c2ccc3ccccc3n2)o1 (stereo in doubt) [Example 119, (4-(difluoromethyl)-2-((R)-1-hydroxyethyl)oxazol-5-yl)((S)-4-(quinolin-2-yl)-6,7-dihydro-1H-imidazo[4,5-c]pyridin-5(4H)-yl)methanone]
22 | < 500 | COCc1nc(C(F)F)c(C(=O)N2CCc3[nH]cnc3C2c2ccc3ccccc3n2)o1 (stereo in doubt) [Example 78, (S)-(4-(difluoromethyl)-2-(methoxymethyl)oxazol-5-yl)(4-(quinolin-2-yl)-6,7-dihydro-1H-imidazo[4,5-c]pyridin-5(4H)-yl)methanone]
23 | 1000 to 5000 | COc1ccc(-c2nnc(C(=O)N3C[C@H](C)c4[nH]cnc4[C@@H]3c3cc4ccccc4cn3)o2)nc1 [Example 515, ((4S,7S)-4-(isoquinolin-3-yl)-7-methyl-6,7-dihydro-1H-imidazo[4,5-c]pyridin-5(4H)-yl)(5-(5-methoxypyridin-2-yl)-1,3,4-oxadiazol-2-yl)methanone]
24 | < 500 | O=C(c1nnc(-c2cc[nH]n2)o1)N1CCc2[nH]cnc2C1c1ccc2ccccc2n1 (stereo in doubt) [Example 115, (R)-(5-(1H-pyrazol-3-yl)-1,3,4-oxadiazol-2-yl)(4-(quinolin-2-yl)-6,7-dihydro-1H-imidazo[4,5-c]pyridin-5(4H)-yl)methanone]
25 | < 500 | Cn1cc(-c2ncc(C(=O)N3CCc4[nH]cnc4[C@H]3c3cc4ccccc4cn3)s2)cn1 [Example 302, (R)-(4-(isoquinolin-3-yl)-6,7-dihydro-1H-imidazo[4,5-c]pyridin-5(4H)-yl)(2-(1-methyl-1H-pyrazol-4-yl)thiazol-5-yl)methanone]
26 | 1000 to 5000 | O=C(c1nnc(-c2ncccc2F)o1)N1CCc2[nH]cnc2C1c1ccc2ccccc2n1 (stereo in doubt) [Example 90, (S)-(5-(3-fluoropyridin-2-yl)-1,3,4-oxadiazol-2-yl)(4-(quinolin-2-yl)-6,7-dihydro-1H-imidazo[4,5-c]pyridin-5(4H)-yl)methanone]
27 | < 500 | C[C@H]1CN(C(=O)c2ocnc2C2CC2)[C@H](c2cc3ccccc3cn2)c2nc[nH]c21 [Example 506, (4-cyclopropyloxazol-5-yl)((4R,7S)-4-(isoquinolin-3-yl)-7-methyl-6,7-dihydro-1H-imidazo[4,5-c]pyridin-5(4H)-yl)methanone]
28 | 1000 to 5000 | O=C(c1cnn(CC(F)(F)F)c1C(F)F)N1CCc2[nH]cnc2C1c1ccc2ccccc2n1 (stereo in doubt) [Example 125, (R)-(5-(difluoromethyl)-1-(2,2,2-trifluoroethyl)-1H-pyrazol-4-yl)(4-(quinolin-2-yl)-6,7-dihydro-1H-imidazo[4,5-c]pyridin-5(4H)-yl)methanone]
29 | < 500 | Cn1nccc1-c1nnc(C(=O)N2CCc3[nH]cnc3[C@H]2c2cc3ccccc3cn2)o1 [Example 447, (R)-(4-(isoquinolin-3-yl)-6,7-dihydro-1H-imidazo[4,5-c]pyridin-5(4H)-yl)(5-(1-methyl-1H-pyrazol-5-yl)-1,3,4-oxadiazol-2-yl)methanone]
30 | 500 to 1000 | CN(C)Cc1ccc2c(C(=O)N3CCc4[nH]cnc4[C@H]3c3ncc4ccccc4n3)cnn2c1 [Example 155, (S)-(6-((dimethylamino)methyl)pyrazolo[1,5-a]pyridin-3-yl)(4-(quinazolin-2-yl)-6,7-dihydro-1H-imidazo[4,5-c]pyridin-5(4H)-yl)methanone]
